Laboratory results taken from BindingDB's records for doi:10.1021/jm0010466 (2001).
Where a SMILES comes first, the peptide text is derived from it.

Test: Binding affinity towards 23-nt RNA oligonucleotide from the 5'-untranslated region of the cholestery ester transfer protein (CETP)

Kd: 32 µM
SMILES: CC(C)C[C@H](NC(=O)[C@H](CCCCN)NC(=O)[C@H](Cc1ccc(O)cc1)NC(=O)[C@@H](N)CCCCN)C(=O)N[C@@H](Cc1ccc(O)cc1)C(=O)N[C@@H](CCCCN)C(=O)N[C@@H](CS)C(N)=O (H-KYKLYKC-NH2)
